Results reported in US20120129872A1, “FUSED HETEROARYL INHIBITORS OF PRO-MATRIX METALLOPROTEINASE ACTIVATION” (priority 2010, published 2012).

Key:
[1] = target: T1, full-length proMMP9(1-707) (SEQ ID NO:1), activation by catalytic MMP3 (Homo sapiens, UniProt P14780, R574P); assay: proMMP9/MMP3 P126 Activation Assay; format: biochemical
T1 construct: made in house; host or cells: HEK293 (transient, secreted)
Description: proMMP9/MMP3 P126 Activation Assay
The reaction volume was 50 μL. […] Reactivity of residual MMP3 towards P-126 substrate was minimal under these conditions.

[2] = target: T2, proMMP9(67-444;ΔFnII) (SEQ ID NO:5) (Homo sapiens, UniProt P14780, DEL216-390); assay: ThermoFluor binding assay with proMMP9(67-444;ΔFnII)
T2 construct: start methionine (N); made in house; host or cells: E. coli BL21(DE3) RIL
T2 sequence (P14780 with tags, fused parts or gaps DEL216-390): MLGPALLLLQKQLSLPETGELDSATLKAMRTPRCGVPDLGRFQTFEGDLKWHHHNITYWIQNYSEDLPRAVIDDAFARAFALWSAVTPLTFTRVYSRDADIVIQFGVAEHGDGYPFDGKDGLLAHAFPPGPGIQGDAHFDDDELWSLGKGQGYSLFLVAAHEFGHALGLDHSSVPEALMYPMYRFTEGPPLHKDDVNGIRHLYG
Description: (§1) The ThermoFluor® (TF) assay is a 384-well plate-based binding assay that measures thermal stability of proteins (Biomol Screen 2001, 6, 429-40; Biochemistry 2005, 44, 5258-66). The experiments were carried out using instruments available from Johnson & Johnson Pharmaceutical Research & Development, LLC. TF dye used in all experiments was […] (1,8-ANS) (Invitrogen: A-47).
(§2) Compounds were arranged in a pre-dispensed plate (Greiner Bio-one: 781280), wherein compounds were serially diluted in 100% DMSO across 11 columns within a series. Columns 12 and 24 were used as DMSO reference and contained no compound. For multiple compound concentration-response experiments, the compound aliquots ([…]) were robotically predispensed directly into black 384-well polypropylene PCR microplates (Abgene: TF-0384/k) using a Cartesian Hummingbird liquid handler (DigiLab, Holliston, Mass.). Following compound dispense, protein and dye solutions were added to achieve the final assay volume of 3 μL. The assay solutions were overlayed with 1 μL of silicone oil (Fluka, type DC 200: 85411) to prevent evaporation.
(§3) Assay plates were robotically loaded onto a thermostatically controlled PCR-type thermal block and then heated from 40 to 90° C. at a ramp-rate of 1° C./min for all experiments. Fluorescence was measured by continuous illumination with UV light (Hamamatsu LC6) supplied via fiber optics and filtered through a band-pass filter (380-400 nm; >60D cutoff). Fluorescence emission of the entire 384-well plate was detected by measuring light intensity using a CCD camera (Sensys, Roper Scientific) filtered to detect 500±25 nm, resulting in simultaneous and independent readings of all 384 wells. A single image with 20-sec exposure time was collected at each temperature, and the sum of the pixel intensity in a given area of the assay plate was recorded vs temperature and fit to standard equations to yield the Tm (J Biomol Screen 2001, 6, 429-40).
(§4) Thermodynamic parameters necessary for fitting compound binding for each proMMP were estimated by differential scanning calorimetry (DSC) and from ThermoFluor® data. The heat capacity of unfolding for each protein was estimated from the molecular weight and from ThermoFluor® dosing data.
ThermoFluor® with proMMP9(67-444;ΔFnII (SEQ ID NO:5)
The protein sample preparations had to include a desalting buffer exchange step via a PD-10 gravity column (GE Healthcare). The desalting buffer exchange was performed prior to diluting the protein to the final assay concentration of 3.5 μM proMMP9(67-444;ΔFnII) (SEQ ID NO:5). The concentration of proMMP9(67-444;ΔFnII) (SEQ ID NO:5) was determined spectrophotometrically based on a calculated extinction coefficient of ε280=33900 M^−1 cm^−1, a calculated molecular weight of 22.6 kDa, and calculated pI of 5.20. ThermoFluor® reference conditions were defined as follows: 80 μg/mL (3.5 μM) proMMP9(67-444;ΔFnII) (SEQ ID NO:5), 50 μM 1,8-ANS, pH 7.0 Buffer (50 mM HEPES pH 7.0, 100 mM NaCl, 0.001% Tween-20, 2.5 mM MgCl2, 300 μM CaCl2). The thermodynamic parameters for proMMP9(67-444;ΔFnII) (SEQ ID NO:5) are as follows: Tm (° C.)=63 (+/−0.1), ΔUH(Tm) (cal mol^−1)=105000(+/−5000), ΔUS(Tm) (cal mol^−1 K^−1)=450, ΔuCp (cal mol^−1 K^−1)=2000.

[3] = target: T3, proMMP9(20-445;ΔFnII) (SEQ ID NO:6) (Homo sapiens, UniProt P14780, DEL216-390); assay: ThermoFluor binding assay with proMMP9(20-445;ΔFnII)
T3 construct: start methionine (N); made in house; host or cells: E. coli BL21(DE3) RIL
T3 sequence (P14780 with tags, fused parts or gaps DEL216-390): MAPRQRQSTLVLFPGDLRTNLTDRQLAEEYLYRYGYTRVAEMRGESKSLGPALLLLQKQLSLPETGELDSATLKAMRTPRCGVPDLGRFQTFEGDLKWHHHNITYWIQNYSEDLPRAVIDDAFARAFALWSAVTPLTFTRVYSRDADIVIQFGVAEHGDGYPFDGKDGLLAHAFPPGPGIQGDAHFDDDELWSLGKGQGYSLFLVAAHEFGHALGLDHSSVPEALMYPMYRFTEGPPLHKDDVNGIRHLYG
Description: as §1, §2, §3, §4
ThermoFluor® with proMMP9(20-445;ΔFnII (SEQ ID NO:6)
The protein sample preparations included a desalting buffer exchange step via a PD-10 gravity column (GE Healthcare). The desalting buffer exchange was performed prior to diluting the protein to the final assay concentration of 2.8 μM proMMP9(20-445;ΔFnII) (SEQ ID NO:6). The concentration of proMMP9(20-445;ΔFnII) (SEQ ID NO:6) was determined spectrophotometrically based on a calculated extinction coefficient of ε280=39880 M^−1 cm^−1, a calculated molecular weight of 28.2 kDa, and calculated pI of 5.5. ThermoFluor® reference conditions were define as follows: 80 μg/mL (2.8 μM) proMMP9(20-445;ΔFnII) (SEQ ID NO:6), 50 μM 1,8-ANS, pH 7.0 Buffer (50 mM HEPES pH 7.0, 100 mM NaCl, 0.001% Tween-20, 2.5 mM MgCl2, 300 μM CaCl2). The thermodynamic parameters for proMMP9(20-445;ΔFnII) (SEQ ID NO:6) are as follows: Tm (° C.)=72 (+/−0.1), ΔUH(Tm) (cal mol^−1)=160000(+/−5000), ΔUS(Tm) (cal mol^−1 K^−1)=434, ΔUCp (cal mol^−1 K^−1)=2400.

[4] = target: T4, proMMP13(1-268) (SEQ ID NO:7) (Homo sapiens, UniProt P45452); assay: ThermoFluor binding assay with proMMP13(1-268)
T4 construct: 6×-histidine tag (C); made in house; host or cells: HEK293 (transient, secreted)
Description: as §1, §2, §3, §4
ThermoFluor® with proMMP13(1-268) (SEQ ID NO: 7)
The proMMP13(1-268) (SEQ ID NO:7) protein sample preparations included a desalting buffer exchange step via a PD-10 gravity column (GE Healthcare). The desalting buffer exchange was performed prior to diluting the protein to the final assay concentration of 3.5 μM. The concentration of proMMP13(1-268) (SEQ ID NO:7) was estimated spectrophotometrically based on a calculated extinction coefficient of ε280=37000 M^−1 cm^−1, a calculated molecular weight of 30.8 kDa, and calculated pI of 5.33. ThermoFluor® reference conditions were defined as follows: 100 μg/mL proMMP13(1-268) (SEQ ID NO:7), 25 μM 1,8-ANS, pH 7.0 Buffer (50 mM HEPES pH 7.0, 100 mM NaCl, 0.001% Tween-20, 2.5 mM MgCl2, 300 μM CaCl2). The thermodynamic parameters for proMMP13(1-268) (SEQ ID NO:7) are as follows: Tm (° C.)=67 (+/−0.1), ΔUH(Tm) (cal mol^−1)=107000(+/−5000), ΔUS(Tm) (cal mol^−1 K^−1)=318, ΔUCp (cal mol^−1 K^−1)=2600.

[5] = target: T5, proMMP13(1-268) (SEQ ID NO:7), activation by plasmin (Homo sapiens, UniProt P45452); assay: ProMMP13/Plasmin P126 Activation Assay; format: biochemical
T5 construct: 6×-histidine tag (C); made in house; host or cells: HEK293 (transient, secreted)
Description: ProMMP13/Plasmin P126 Activation Assay
On the day of assay, proMMP13(1-268) (SEQ ID NO:7) purified from HEK293 cells and plasmin were diluted to 160 nM and 320 nM, respectively, in assay buffer. The reaction volume was 50 μL. […] The plate was sealed and incubated for 40 min at 37° C. […] Plasmin was not reactive towards P-126 substrate under these conditions.

[6] = target: T1, full-length proMMP9(1-707) (SEQ ID NO:1), activation by catalytic MMP3; assay: ProMMP9/MMP3 DQ Gelatin Activation Assay; format: biochemical; conditions: read-out: ProMMP9/MMP3 DQ gel Activation Assay, IC50
From the text: ProMMP9/MMP3 DQ Gelatin Activation Assay

T1 sequence (P14780 20-707 R574P): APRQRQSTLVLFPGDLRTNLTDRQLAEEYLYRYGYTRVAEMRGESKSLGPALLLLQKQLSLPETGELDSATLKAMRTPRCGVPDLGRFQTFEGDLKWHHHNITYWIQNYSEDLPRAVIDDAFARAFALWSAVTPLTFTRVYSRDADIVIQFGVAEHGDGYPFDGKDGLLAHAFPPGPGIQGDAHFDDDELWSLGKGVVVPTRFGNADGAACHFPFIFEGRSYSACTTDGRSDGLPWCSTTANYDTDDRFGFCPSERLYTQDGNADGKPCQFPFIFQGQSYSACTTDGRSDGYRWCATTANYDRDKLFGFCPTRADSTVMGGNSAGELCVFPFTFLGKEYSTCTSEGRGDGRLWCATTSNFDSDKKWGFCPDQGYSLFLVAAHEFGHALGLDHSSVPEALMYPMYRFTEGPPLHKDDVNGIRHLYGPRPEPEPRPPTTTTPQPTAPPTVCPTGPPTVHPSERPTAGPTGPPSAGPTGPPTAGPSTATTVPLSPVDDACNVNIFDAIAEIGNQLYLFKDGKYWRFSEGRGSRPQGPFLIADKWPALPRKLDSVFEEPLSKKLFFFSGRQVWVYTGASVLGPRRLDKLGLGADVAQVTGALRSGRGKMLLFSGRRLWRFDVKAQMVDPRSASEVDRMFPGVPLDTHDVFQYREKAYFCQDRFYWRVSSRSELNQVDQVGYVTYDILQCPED

IC50 [1] [nM] | Kd [2] [nM] | Kd [3] [nM] | Kd [4] [nM] | IC50 [5] [nM] | IC50 [6] [nM] | SMILES
640 | 17000 | 490 | 1100 |  |  | Cc1nc2ccc(Cl)cn2c1-c1csc(Nc2cc(C(N)=O)ccc2OC(C)C)n1 [Example 6, 3-[4-(6-Chloro-2-methyl-imidazo[1,2-a]pyridin-3-yl)-thiazol-2-ylamino]-4-isopropoxy-benzamide]
1800 | 9600 | 1500 | 1200 |  |  | Cc1ccn2c(-c3csc(Nc4cc(C(N)=O)ccc4OC(C)C)n3)c(C)nc2c1 [Example 7, 3-[4-(2,7-Dimethyl-imidazo[1,2-a]pyridin-3-yl)-thiazol-2-ylamino]-4-isopropoxy-benzamide]
150 | 330 | 30 |  | 900 |  | CC(C)Oc1ccc(C(N)=O)cc1Nc1nc(-c2ccc3c(c2)ncn3C)cs1 [Example 8, 4-Isopropoxy-3-[4-(1-methyl-1H-benzoimidazol-5-yl)-thiazol-2-ylamino]-benzamide]
 | > 28000 | > 29000 |  |  | 5000 | COc1ccc([N+](=O)[O-])cc1Nc1nc(-c2cnc3ccccn23)cs1 [Example 28, (4-Imidazo[1,2-a]pyridin-3-yl-thiazol-2-yl)-(2-methoxy-5-nitro-phenyl)-amine]
